In US11964953B2, “Substituted aminothiazoles as DGKzeta inhibitors for immune activation” (Bayer Aktiengesellschaft, priority 2020, dated 2024):
pIC50: −log10 of the molar value.

Target: human DGKζ (Homo sapiens (Human), UniProt Q13574)
Assay: Human DGKζ kinase activity inhibition assay (ADP-Glo)
Format: biochemical
Settings: in vitro human DGKζ kinase activity inhibition assay; read-out: IC50
Summary of the method: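 ADP-Glo luminescence, reflecting ADP produced, served as the readout of activity. Full-length human DGKζ, FLAG-tagged at the C-terminus and insect-cell expressed, was used; lipid substrate mix was sonicated with octyl-β-D-glucopyranoside in 50 mM MOPS pH 7.4.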

Sequence of human DGKζ (Q13574 other isoform, or with tags, fused parts or gaps): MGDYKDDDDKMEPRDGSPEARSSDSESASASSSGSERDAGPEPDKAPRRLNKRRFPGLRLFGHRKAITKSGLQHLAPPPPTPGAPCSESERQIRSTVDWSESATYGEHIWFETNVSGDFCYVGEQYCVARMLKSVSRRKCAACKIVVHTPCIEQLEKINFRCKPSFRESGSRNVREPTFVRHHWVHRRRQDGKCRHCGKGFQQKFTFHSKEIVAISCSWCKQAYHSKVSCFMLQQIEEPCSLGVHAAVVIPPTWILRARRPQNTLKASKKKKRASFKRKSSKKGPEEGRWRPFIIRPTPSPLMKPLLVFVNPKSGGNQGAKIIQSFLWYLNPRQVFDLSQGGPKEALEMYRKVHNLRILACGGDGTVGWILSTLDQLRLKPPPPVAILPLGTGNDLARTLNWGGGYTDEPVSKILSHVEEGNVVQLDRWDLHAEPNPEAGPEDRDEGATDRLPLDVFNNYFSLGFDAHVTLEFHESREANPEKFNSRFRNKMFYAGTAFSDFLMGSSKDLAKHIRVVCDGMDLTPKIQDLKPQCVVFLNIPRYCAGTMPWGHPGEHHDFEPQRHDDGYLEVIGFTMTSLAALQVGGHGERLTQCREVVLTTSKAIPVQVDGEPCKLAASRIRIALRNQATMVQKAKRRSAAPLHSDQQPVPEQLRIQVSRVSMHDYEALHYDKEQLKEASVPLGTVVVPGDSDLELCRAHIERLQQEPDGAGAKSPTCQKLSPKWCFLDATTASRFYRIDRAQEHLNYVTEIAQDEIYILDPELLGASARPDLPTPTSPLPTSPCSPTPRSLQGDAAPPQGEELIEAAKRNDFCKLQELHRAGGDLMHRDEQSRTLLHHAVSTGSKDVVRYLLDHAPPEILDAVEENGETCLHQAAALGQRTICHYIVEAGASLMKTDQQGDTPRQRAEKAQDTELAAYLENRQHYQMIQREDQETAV

SMILES | pIC50
CC(C(N)=O)N(c1ccc(F)cc1)c1nc(N)c(C(=O)c2ccc(S(C)(=O)=O)cc2)s1 (racemic) [Example 19, rac-2-(N-[4-amino-5-(4-methylsulfonylbenzoyl)thiazol-2-yl]-4-fluoro-anilino)propanamide] | 6.70
CC(C(N)=O)N(c1ccc(F)cc1)c1nc(N)c(C(=O)c2ccc(OCC(=O)NC34CC5CC(CC(C5)C3)C4)cc2)s1 (single isomer, unassigned) [Example 142, 2-(N-[5-[4-[2-(1-adamantylamino)-2-oxo-ethoxy]benzoyl]-4-amino-thiazol-2-yl]-4-fluoro-anilino)propanamide] | 7.84
CC(C(N)=O)N(c1ccc(F)cc1)c1nc(N)c(C(=O)c2ccc(N3CCC(C)(C#N)CC3)nc2)s1 (single isomer, unassigned; enantiomer 2) [Example 285.2, 2-(N-[4-amino-5-[6-(4-cyano-4-methyl-1-piperidyl)pyridine-3-carbonyl]thiazol-2-yl]-4-fluoro-anilino)propanamide (enantiomer 2)] | 6.36
COc1ccc(C(=O)c2sc(N(c3ccc(F)c(Cl)c3)C(C)C(N)=O)nc2N)cc1 (racemic) [Example 161, rac-2-(N-[4-amino-5-(4-methoxybenzoyl)thiazol-2-yl]-3-chloro-4-fluoro-anilino)propanamide] | 7.82
COc1ccc(N(c2nc(N)c(C(=O)c3ccccc3)s2)C(C)C(N)=O)cn1 (racemic) [Example 227, rac-2-[(4-amino-5-benzoyl-thiazol-2-yl)-(6-methoxy-3-pyridyl)amino]propanamide] | 6.41
CC(C(N)=O)N(c1ccc(OC(F)F)c(Cl)c1)c1nc(N)c(C(=O)c2ccc(OC(F)F)cc2)s1 (racemic) [Example 201, rac-2-[N-[4-amino-5-[4-(difluoromethoxy)benzoyl]thiazol-2-yl]-3-chloro-4-(difluoromethoxy)anilino]propanamide] | 7.60
CC(C(N)=O)N(c1ccc(F)cc1)c1nc(N)c(C(=O)c2ccc(Br)cc2)s1 (racemic) [Example 80, rac-2-(N-[4-amino-5-(4-bromobenzoyl)thiazol-2-yl]-4-fluoro-anilino)propanamide] | 7.97
COc1ccc(C(=O)c2sc(N(c3ccc4c(c3)OC(F)(F)O4)C(C)C(N)=O)nc2N)cc1 (racemic) [Example 212, rac-2-[[4-amino-5-(4-methoxybenzoyl)thiazol-2-yl]-(2,2-difluoro-1,3-benzodioxol-5-yl)amino]propanamide] | 7.39
CC(C(N)=O)N(c1ccc(F)cc1)c1nc(N)c(C(=O)c2ccc(OCC(=O)N(C)C3CCN(C)CC3)cc2)s1 (racemic) [Example 101, rac-2-(N-[4-amino-5-[4-[2-[methyl-(1-methyl-4-piperidyl)amino]-2-oxo-ethoxy]benzoyl]thiazol-2-yl]-4-fluoro-anilino)propanamide] | 6.48
CC(C(N)=O)N(c1ccc(F)cc1)c1nc(N)c(C(=O)c2ccc(OCC(=O)NCc3ccccc3F)cc2)s1 (racemic) [Example 96, rac-2-(N-[4-amino-5-[4-[2-[(2-fluorophenyl)methylamino]-2-oxo-ethoxy]benzoyl]thiazol-2-yl]-4-fluoro-anilino)propanamide] | 7.50
CC(C(N)=O)N(c1ccc(F)cc1)c1nc(N)c(C(=O)c2ccc(OCC(=O)N3Cc4ccccc4C3)cc2)s1 (racemic) [Example 134, rac-2-(N-[4-amino-5-[4-(2-isoindolin-2-yl-2-oxo-ethoxy)benzoyl]thiazol-2-yl]-4-fluoro-anilino)propanamide] | 7.11
CC(C(N)=O)N(c1ccc(Cl)cc1)c1nc(N)c(C(=O)c2ccc(Cl)cc2)s1 (racemic) [Example 41, rac-2-(N-[4-amino-5-(4-chlorobenzoyl)thiazol-2-yl]-4-chloro-anilino)propanamide] | 7.87
CC(C(N)=O)N(c1ccc(Cl)nc1)c1nc(N)c(C(=O)c2ccccc2)s1 (racemic) [Example 232, rac-2-[(4-amino-5-benzoyl-thiazol-2-yl)-(6-chloro-3-pyridyl)amino]propanamide] | 6.95
CC(C(N)=O)N(c1ccc(Cl)c(F)c1)c1nc(N)c(C(=O)c2ccc(O)cc2)s1 (single isomer, unassigned; enantiomer 1) [Example 289, 2-(N-[4-amino-5-(4-hydroxybenzoyl)thiazol-2-yl]-4-chloro-3-fluoro-anilino)propanamide (enantiomer 1)] | 8.00
CC(C(N)=O)N(c1ccc(F)cc1)c1nc(N)c(C(=O)c2ccc(-n3ccnc3)cc2)s1 (racemic) [Example 20, rac-2-(N-[4-amino-5-(4-imidazol-1-ylbenzoyl)thiazol-2-yl]-4-fluoro-anilino)propanamide] | 6.79
C#CCN(C)C(=O)COc1ccc(C(=O)c2sc(N(c3ccc(F)cc3)C(C)C(N)=O)nc2N)cc1 (racemic) [Example 93, rac-2-(N-[4-amino-5-[4-[2-[methyl(prop-2-ynyl)amino]-2-oxo-ethoxy]benzoyl]thiazol-2-yl]-4-fluoro-anilino)propanamide] | 6.73
CC(C(N)=O)N(c1ccc(F)cc1)c1nc(N)c(C(=O)c2ccc(N3CCCC3)cc2)s1 (racemic) [Example 181, rac-2-(N-[4-amino-5-(4-pyrrolidin-1-ylbenzoyl)thiazol-2-yl]-4-fluoro-anilino)propanamide] | 7.19
CC(C(N)=O)N(c1ccc(C(F)(F)F)cc1)c1nc(N)c(C(=O)c2ccccc2)s1 (racemic) [Example 28, rac-2-[N-(4-amino-5-benzoyl-thiazol-2-yl)-4-(trifluoromethyl)anilino]propanamide] | 7.21
COc1ccc(C(=O)c2sc(N(c3ccc(OC(F)F)c(F)c3)C(C)C(N)=O)nc2N)cc1 (racemic) [Example 205, rac-2-[N-[4-amino-5-(4-methoxybenzoyl)thiazol-2-yl]-4-(difluoromethoxy)-3-fluoro-anilino]propanamide] | 7.27
COc1ccc(C(=O)c2sc(N(c3ccc(OC(F)(F)F)nc3)C(C)C(N)=O)nc2N)cc1 (racemic) [Example 248, rac-2-[[4-amino-5-(4-methoxybenzoyl)thiazol-2-yl]-[6-(trifluoromethoxy)-3-pyridyl]amino]propanamide] | 6.87
CC(C(N)=O)N(c1ccc(OC(F)(F)F)c(F)c1)c1nc(N)c(C(=O)c2ccncc2)s1 (racemic) [Example 220, rac-2-[N-[4-amino-5-(pyridine-4-carbonyl)thiazol-2-yl]-3-fluoro-4-(trifluoromethoxy)anilino]propanamide] | 6.66
CC(C(N)=O)N(c1ccc(F)cc1)c1nc(N)c(C(=O)c2ccc(Oc3ccccc3)cc2)s1 (racemic) [Example 173, rac-2-(N-[4-amino-5-(4-phenoxybenzoyl)thiazol-2-yl]-4-fluoro-anilino)propanamide] | 7.60
CC(C(N)=O)N(c1ccc(C#N)cc1)c1nc(N)c(C(=O)c2ccccc2)s1 (racemic) [Example 9, rac-2-(N-(4-amino-5-benzoyl-thiazol-2-yl)-4-cyano-anilino)propanamide] | 6.27
CC(C(N)=O)N(c1ccc(OC(F)(F)F)c(Cl)c1)c1nc(N)c(C(=O)c2ccc(OC(F)F)nc2)s1 (racemic) [Example 226, rac-2-[N-[4-amino-5-[6-(difluoromethoxy)pyridine-3-carbonyl]thiazol-2-yl]-3-chloro-4-(trifluoromethoxy)anilino]propanamide] | 7.06
CC(C(N)=O)N(c1ccc(C(F)F)cc1)c1nc(N)c(C(=O)c2ccc(Cl)cc2)s1 (racemic) [Example 244, rac-2-[N-[4-amino-5-(4-chlorobenzoyl)thiazol-2-yl]-4-(difiuoromethyl)anilino]propanamide] | 7.52

Next, values leading:

pIC50 | SMILES
6.90 | CC(C(N)=O)N(c1ccc(F)c(F)c1)c1nc(N)c(C(=O)c2ccncc2)s1 (single isomer, unassigned) [Example 50.1, 2-(N-[4-amino-5-(pyridine-4-carbonyl)thiazol-2-yl]-3,4-difluoro-anilino)propanamide]
6.92 | CC(C(N)=O)N(c1ccc(Cl)c(F)c1)c1nc(N)c(C(=O)c2ccc(OC(F)F)cc2)s1 (single isomer, unassigned) [Example 48.2, 2-(N-[4-amino-5-[4-(difluoromethoxy)benzoyl]thiazol-2-yl]-4-chloro-3-fluoro-anilino)propanamide]
5.06 | CC(C(N)=O)N(c1ccc(F)cc1)c1nc(N)c(C(=O)c2ccc(C#N)cc2)s1 (single isomer, unassigned) [Example 33.1, 2-(N-[4-amino-5-(4-cyanobenzoyl)thiazol-2-yl]-4-fluoro-anilino)propanamide]
4.83 | CC(C(N)=O)N(c1ccc(Cl)cc1)c1nc(N)c(C(=O)c2ccncc2)s1 (single isomer, unassigned) [Example 57.2, 2-(N-[4-amino-5-(pyridine-4-carbonyl)thiazol-2-yl]-4-chloro-anilino)propanamide]
6.37 | COc1ccc(C(=O)c2sc(N(c3ccc(Cl)c(F)c3)C(C)C(N)=O)nc2N)cc1 (single isomer, unassigned) [Example 59.2, 2-(N-[4-amino-5-(4-methoxybenzoyl)thiazol-2-yl]-4-chloro-3-fluoro-anilino)propanamide]
7.92 | CC(C(N)=O)N(c1ccc(F)cc1)c1nc(N)c(C(=O)c2ccc(OC(F)F)nc2)s1 (single isomer, unassigned) [Example 162.1, 2-(N-[4-amino-5-[6-(difluoromethoxy)pyridine-3-carbonyl]thiazol-2-yl]-4-fluoro-anilino)propanamide]
5.56 | CC(C(N)=O)N(c1ccc(C(F)(F)F)cc1)c1nc(N)c(C(=O)c2ccc(OC(F)F)cc2)s1 (single isomer, unassigned) [Example 43.1, 2-[N-[4-amino-5-[4-(difluoromethoxy)benzoyl]thiazol-2-yl)-4-(trifluoromethyl)anilino]propanamide]
5.70 | CC(C(N)=O)N(c1ccc(Cl)cc1)c1nc(N)c(C(=O)c2ccc(F)cc2)s1 (single isomer, unassigned) [Example 37.1, 2-(N-[4-amino-5-(4-fluorobenzoyl)thiazol-2-yl]-4-chloro-anilino)propanamide]
